The record followed here is patent publication US9409870B2, “Compounds” (CHIESI FARMACEUTICI S.p.A., priority 2014, dated 2016).

Molecules are shown by their SMILES. Counter-ions that a name gives are not always drawn.

As usually defined, the IC50 is the concentration that gives 50% inhibition.

This experiment has as its target T1, human neutrophil elastase (HNE) (Homo sapiens, UniProt P08246).
T1 construct: purchased Sigma E8140
T1 sequence (P08246 30-247 limits assumed): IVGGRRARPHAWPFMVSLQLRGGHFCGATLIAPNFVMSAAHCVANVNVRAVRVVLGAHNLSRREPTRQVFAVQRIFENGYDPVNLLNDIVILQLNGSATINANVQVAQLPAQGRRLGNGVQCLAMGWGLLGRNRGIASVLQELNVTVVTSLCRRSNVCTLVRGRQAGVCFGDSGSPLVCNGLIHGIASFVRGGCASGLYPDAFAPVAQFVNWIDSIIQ
In words: HNE enzyme activity assay (fluorogenic peptide substrate MeOSuc-Ala-Ala-Pro-Val-AMC). The class given is biochemical. The note with it: human leukocyte elastase 0.00072 U/mL, substrate 100 μM, 25° C., 30 minutes, pH 7.5; at least two separate experiments; read-out: FINE inhibition (HNE enzyme inhibition, IC50 values). The method, then:
Compounds of this invention were tested for potency in a human neutrophil elastase (HNE) enzyme activity assay.
Assays were performed in 96-well plates in a total assay volume of 100 μL. The final concentration of elastase enzyme (human leukocyte elastase, Sigma E8140) was 0.00072 U/mL. The peptide substrate (MeOSuc-Ala-Ala-Pro-Val-AMC, Calbiochem #324740) was used at a final concentration of 100 μM. The final concentration of DMSO was 1% in the assay buffer (0.05M Tris.HCl, 0.1M NaCl, 0.1M CaCl2, 0.0005% brij-35, pH 7.5). The enzymatic reaction was started by addition of the enzyme and incubated at 25° C. for 30 minutes. After incubation, the reaction was stopped by addition of soybean trypsin inhibitor (Sigma T9003) at a final concentration of 50 μg/well. Fluorescence was measured using a Molecular Devices fluorescence plate reader using 380 nm excitation and 460 nm emission wavelengths.
A dose response to each compound was performed and the effect of compound in each experiment was expressed as a percentage inhibition of the control enzyme fluorescence. Dose response curves were plotted and compound potency (IC50) was determined. Compounds were tested in at least two separate experiments.
`CNC(=O)Cn1c(-c2ccnn2-c2ccc(C#N)cc2)c(C)n(-c2cccc(C(F)(F)F)c2)c1=O` [Example 23, 2-{5-[1-(4-Cyanophenyl)-1H-pyrazol-5-yl]-4-methyl-2-oxo-3-[3-(trifluoromethyl)phenyl]-2,3-dihydro-1H-imidazol-1-yl}-N-methylacetamide]: the concentration for half-maximal inhibition (IC50) was 10 to 50 nM. Consider `Cc1c(-c2ccnn2-c2ccc(C#N)cc2)n(C(=O)NCCC[N+](C)(C)C)c(=O)n1-c1cccc(C(F)(F)F)c1` [Example 24, Benzenesulfonate 3-[({5-[1-(4-cyanophenyl)-1H-pyrazol-5-yl]-4-methyl-2-oxo-3-[3-(trifluoromethyl)phenyl]-2,3-dihydro-1H-imidazol-1-yl}carbonyl)amino]-N,N,N-trimethylpropan-1-aminium], for which the IC50 lay within 1 to 10 nM.

On to `Cc1c(-c2ccnn2-c2ccc(C#N)cc2)n(C(=O)NCC[N+](C)(C)C)c(=O)n1-c1cccc(C(F)(F)F)c1` [Example 25, Benzenesulfonate 2-[({5-[1-(4-cyanophenyl)-1H-pyrazol-5-yl]-4-methyl-2-oxo-3-[3-(trifluoromethyl)phenyl]-2,3-dihydro-1H-imidazol-1-yl}carbonyl)amino]-N,N,N-trimethylethanaminium], for which the IC50 lay in the range of 1 to 10 nM. With `CCCCn1c(-c2ccnn2-c2ccc(C#N)cc2)c(C)n(-c2cccc(C(F)(F)F)c2)c1=O` [Example 26, 4-(5-{3-Butyl-5-methyl-2-oxo-1-[3-(trifluoromethyl)phenyl]-2,3-dihydro-1H-imidazol-4-yl}-1H-pyrazol-1-yl)benzonitrile] the figure was 1 to 10 nM. With `Cc1c(-c2ccnn2-c2ccc(C#N)cc2)n(S(C)(=O)=O)c(=O)n1-c1cccc(C(F)(F)F)c1` [Example 27, 4-(5-{5-Methyl-3-(methylsulfonyl)-2-oxo-1-[3-(trifluoromethyl)phenyl]-2,3-dihydro-1H-imidazol-4-yl}-1H-pyrazol-1-yl)benzonitrile], the IC50 was < 1 nM. With `CCCC(C)n1c(-c2ccnn2-c2ccc(C#N)cc2)c(C)n(-c2cccc(C(F)(F)F)c2)c1=O` (stereo not shown) [Example 28, 4-{5-[5-Methyl-3-(1-methyl-butyl)-2-oxo-1-(3-trifluoromethyl-phenyl)-2,3-dihydro-1H-imidazol-4-yl]pyrazol-1-yl}-benzonitrile], the IC50 lay within 1 to 10 nM. `Cc1c(-c2ccnn2-c2ccc(C#N)cc2)n(CCN(C)C)c(=O)n1-c1cccc(C(F)(F)F)c1` [Example 29, 4-{5-[3-(2-Dimethylamino-ethyl)-5-methyl-2-oxo-1-(3-trifluoromethylphenyl)-2,3-dihydro-1H-imidazol-4-yl]-pyrazol-1-yl}-benzonitrile]: the IC50 lay in the range of 1 to 10 nM. With `Cc1c(-c2ccnn2-c2ccc(C#N)cc2)n(CCCN(C)C)c(=O)n1-c1cccc(C(F)(F)F)c1` [Example 30, 4-{5-[3-(3-Dimethylamino-propyl)-5-methyl-2-oxo-1-(3-trifluoromethylphenyl)-2,3-dihydro-1H-imidazol-4-yl]-pyrazol-1-yl}-benzonitrile] the figure was 1 to 10 nM; with `CCCS(=O)(=O)n1c(-c2ccnn2-c2ccc(C#N)cc2)c(C)n(-c2cccc(C(F)(F)F)c2)c1=O` [Example 31, 4-{5-[5-Methyl-2-oxo-3-(propane-1-sulfonyl)-1-(3-trifluoromethyl-phenyl)-2,3-dihydro-1H-imidazol-4-yl]-pyrazol-1-yl}-benzonitrile], 1 to 10 nM; with `Cc1c(-c2ccnn2-c2ccc(C#N)cc2)n(S(=O)(=O)C2CC2)c(=O)n1-c1cccc(C(F)(F)F)c1` [Example 32, 4-{5-[3-Cyclopropanesulfonyl-5-methyl-2-oxo-1-(3-trifluoromethyl-phenyl)-2,3-dihydro-1H-imidazol-4-yl]-pyrazol-1-yl}-benzonitrile], < 1 nM.

As to `CCNS(=O)(=O)n1c(-c2ccnn2-c2ccc(C#N)cc2)c(C)n(-c2cccc(C(F)(F)F)c2)c1=O` [Example 33, 5-[2-(4-Cyano-phenyl)-2H-pyrazol-3-yl]-4-methyl-2-oxo-3-(3-trifluoromethylphenyl)-2,3-dihydro-imidazole-1-sulfonic acid ethylamide], the IC50 was in the range of 1 to 10 nM. As for `Cc1c(-c2ccnn2-c2ccc(C#N)cc2)n(S(=O)(=O)NC2CCCC2)c(=O)n1-c1cccc(C(F)(F)F)c1` [Example 34, 5-[2-(4-Cyano-phenyl)-2H-pyrazol-3-yl]-4-methyl-2-oxo-3-(3-trifluoromethylphenyl)-2,3-dihydro-imidazole-1-sulfonic acid cyclopentylamide], the 50% inhibitory concentration (IC50) was < 1 nM.

With `Cc1c(-c2ccnn2-c2ccc(C#N)cc2)n(S(=O)(=O)NC2CC2)c(=O)n1-c1cccc(C(F)(F)F)c1` [Example 35, 5-[2-(4-Cyano-phenyl)-2H-pyrazol-3-yl]-4-methyl-2-oxo-3-(3-trifluoromethylphenyl)-2,3-dihydro-imidazole-1-sulfonic acid cyclopropylamide], the IC50 was in the range of 1 to 10 nM. Regarding `Cc1c(-c2ccnn2-c2ccc(C#N)cc2)n(CC(=O)N2CCCC2)c(=O)n1-c1cccc(C(F)(F)F)c1` [Example 36, 4-{5-[5-Methyl-2-oxo-3-(2-oxo-2-pyrrolidin-1-yl-ethyl)-1-(3-trifluoromethylphenyl)-2,3-dihydro-1H-imidazol-4-yl]-pyrazol-1-yl}-benzonitrile], the IC50 fell in the range of 1 to 10 nM. Consider `Cc1c(-c2ccnn2-c2ccc(C#N)cc2)n(CC(=O)N(C)C)c(=O)n1-c1cccc(C(F)(F)F)c1` [Example 37, 2-[5-[2-(4-Cyano-phenyl)-2H-pyrazol-3-yl]-4-methyl-2-oxo-3-(3-trifluoromethyl-phenyl)-2,3-dihydro-imidazol-1-yl]-N,N-dimethyl-acetamide], for which the IC50 fell in the range of 1 to 10 nM. In the case of `Cc1c(-c2ccnn2-c2ccc(C#N)cc2)n(CC(=O)N2CCN(C)CC2)c(=O)n1-c1cccc(C(F)(F)F)c1` [Example 38, 4-{5-[5-Methyl-3-[2-(4-methyl-piperazin-1-yl)-2-oxo-ethyl]-2-oxo-1-(3-trifluoromethyl-phenyl)-2,3-dihydro-1H-imidazol-4-yl]-pyrazol-1-yl}-benzonitrile], the IC50 fell in the range of 1 to 10 nM.

Regarding `Cc1c(-c2ccnn2-c2ccc(C#N)cc2)n(CC(=O)NCCCN(C)C)c(=O)n1-c1cccc(C(F)(F)F)c1` [Example 39, 2-[5-[2-(4-Cyano-phenyl)-2H-pyrazol-3-yl]-4-methyl-2-oxo-3-(3-trifluoromethyl-phenyl)-2,3-dihydro-imidazol-1-yl]-N-(3-dimethylaminopropyl)-acetamide formic acid salt], the IC50 was in the range of 10 to 50 nM. With `Cc1c(-c2ccnn2-c2ccc(C#N)cc2)n(CC(=O)N(C)C2CCC2)c(=O)n1-c1cccc(C(F)(F)F)c1` [Example 40, 2-[5-[2-(4-Cyano-phenyl)-2H-pyrazol-3-yl]-4-methyl-2-oxo-3-(3-trifluoromethyl-phenyl)-2,3-dihydro-imidazol-1-yl]-N-cyclobutyl-N-methyl-acetamide], the concentration for half-maximal inhibition (IC50) was in the range of 1 to 10 nM. For `Cc1c(-c2ccnn2-c2ccc(C#N)cc2)n(C(=O)NC2CCC2)c(=O)n1-c1cccc(C(F)(F)F)c1` [Example 41, 5-[2-(4-Cyano-phenyl)-2H-pyrazol-3-yl]-4-methyl-2-oxo-3-(3-trifluoromethyl-phenyl)-2,3-dihydro-imidazole-1-carboxylic acid cyclobutylamide], the IC50 was < 1 nM.
